# Results as given in article PMC10788856, “Mimicking Nonribosomal Peptides from the Marine Actinomycete Streptomyces sp. H-KF8 Leads to Antimicrobial Peptides” (ACS Infectious Diseases, 2023).
# Experiments:
# E. coli CCUG31246 [1] = experiment: Bacterial cytological profiling (DAPI, FM4-64, phase contrast); assay type: cell-based; conditions: polymyxin B 10 μg/mL
# Method: To gain insight into the peptides’ antimicrobial mechanisms, bacterial cytological profiling was performed. This live-cell imaging method makes use of different fluorescent dyes and protein fusions together with phase contrast microscopy to assess the phenotype of bacterial cells after antibiotic treatment.[33] Single-cell analysis then gives insight into the extent and population heterogeneity of the observed phenotypic effects. In this study, we used the DNA dye DAPI and the membrane dye FM4-64 and analyzed the effects of the compounds on cell length, nucleoid compaction, and membrane morphology (Figures 6 and S15). […] In the preparation of mechanistic studies, MICs were determined. […]
# Bacterial cytological profiling was performed according to Wenzel et al.[34] […] Stained samples were spotted on 1.2% agarose films, sealed with a gene frame, and immediately imaged using a Nikon Eclipse Ti2 inverted fluorescence live-cell imaging system equipped with a CFI Plan Apochromat DM Lambda 100X Oil objective (N.A. = 1.45 and W.D. = 0.13 mm), a Photometrics, PRIME BSI camera, a Lumencor Sola SE II FISH 365 light source, and an Okolab temperature incubation chamber. Images were obtained using the NIS elements AR software version 5.21.03 and were processed and analyzed with ImageJ.[53] Quantification of microscopy images was performed using the ImageJ plugins ObjectJ[54] and MicrobeJ.[55] […]
# E. coli CCUG31246 [2] = experiment: Propidium iodide staining (pore formation); assay type: cell-based; conditions: 1× MIC of peptide, polymyxin B 10 μg/mL; 10 and 60 min
# Method: Due to the overall similarity of the peptides’ cytological profiles to that of polymyxin B, we further tested their ability to form pores in the cell membrane. To this end, we used the fluorescence probe propidium iodide, which cannot cross intact membranes but can enter cells through pores of sufficient size.[39]
# Pore formation was investigated with the fluorescence dye propidium iodide as described previously[56] with minor modifications. E. coli CCUG31246 was grown to an OD600 of 0.3 and subsequently treated with different peptides for 10 and 60 min. Samples were stained with 1 μg/mL propidium iodide for 15 min (added 5 min before adding antibiotics for the 10 min time point and after 45 min of antibiotic treatment for the 60 min time point), spotted on 1.2% agarose films, and sealed with a gene frame. Microscopy was performed as described above. The fluorescence intensity of the different samples was analyzed with MicrobeJ. For detection of bacterial cells from phase contrast images, parameters were set to an area of 1.5-max, length of 1-max, width 0.5–2.5, curvature 0–1.5, and an angularity of 0–0.5. Fluorescence intensity parameters were set to an area of 1.5-max, length of 1-max, and width 0.5–2.5. All other parameters remained at default settings.
# [3] = system: Escherichia coli (CCUG 31246); experiment: Minimum microbicidal concentration (MMC99) assay; assay type: cell-based, E. coli; conditions: BHI diluted 1/100, 37 °C, median, n = 3
# Method: The microbicidal activity of the synthetic peptides was assessed against S. aureus (ATCC 12600; American Type Culture Collection, Manassas, VA, USA), Escherichia coli (CCUG 31246; Culture Collection, University of Gothenburg, Sweden), and Candida albicans (ATCC 64549/CCUG31028) using an MMC assay, as described previously by […] et al. (specific details in Supporting Information, pages 10, 11).[28] The assay was performed in BHI diluted 1/100 (BHI100). […] page 11: Table S5. Energy and structural ensembles of synthesized peptides. […] Energy -3887.06 -3620.88 -4968.42 -2163.76 -2646.75 Van der Waals solv. Energy 117.32 91.57 183.20 -88.88 -139.89 Mean RMSD* (Å), mean±SD […] Heavy atoms 1.87 ± 0.33 1.77 ± 0.50 0.98 ± 0.34 0.63 ±0.22 2.88 ±0.62 MMC99 activity including salt stability measurements Antimicrobial activity of L2 and L3 in the presence of NaCl. 1Table S6. Peptide MMC99 (μg/ml) sin NaCl S. aureus E.coli C. albicans (mM) 2[…] 0 50 25 25 85 - - - - - - >200 >200 >200 150 - - - - - - >200 >200 >200 3L 0 12.5 12.5 25 12,5 6.3 6.3 12.5 6.3 12.5 […] 150 >400 >400 (-)2 >400 >400 >400 >200 >200 >200 […] or 150 mM NaCl. L2 and L3 were serially diluted in twofold steps with a starting dilution of 200 μg/ml […] All sample dilutions were run in duplicates (L2) or triplicates (L3). 2 The growth of S. aureus at 24 h in BHI 100 with 85 or 150 mM NaCl was reduced. Minimum microbicidal concentration (MMC), killing 99% of the inoculum. All microorganisms were cultured in brain-heart infusion broth (BHI) overnight on a shaker at 37°C. The cultures were thereafter transferred to fresh BHI broth in volumes constituting 10% of total, and incubated for an additional 2 h to reach exponential growth phase. The bacterial cultures were washed once in BHI diluted 1/100 (BHI100), followed by resuspension in BHI100. The cell suspensions were diluted to a density of […] (bacteria) or 2x10^7 CFU/ml (yeast), as estimated by optical density measurement at 590 nm. […] Serum stability Figure S 133. […] A) peptide L2 B) peptide L3. C) peptide L3-K. D) peptide C3.
# E. coli CCUG31246 [4] = assay type: cell-based; conditions: 1:10 BHI; 5 × 10^5 CFU/mL; 37 °C, 16 h; highest concentration 512 μg/mL; median, n = 3
# Method: MICs were performed under the same growth conditions used for mode of action analysis following the guidelines issued by the Clinical Laboratory Standardization Institute (CLSI) with slight modifications. Serial two-fold dilutions of the peptides were prepared in 1:10 BHI in a sterile 96-well plate and subsequently inoculated with 5 × 10^5 CFU/mL of E. coli CCUG31246. […] The following MICs were obtained: C3: 512 μg/mL, L3: 64 μg/mL, and L3-K: 128 μg/mL. These concentrations were used for all mechanistic experiments. Polymyxin B was used as a positive control in all assays at a final concentration of 10 μg/mL.
# E. coli CCUG31246 [5] = experiment: DiSC(3)5 microscopy (membrane potential); assay type: cell-based; conditions: 1× MIC of peptide, polymyxin B 10 μg/mL; 10 min; 0.5 μM DiSC(3)5
# Description: Propidium iodide is a large organic molecule that is not suitable to detect smaller ion-conducting pores or channels induced by antimicrobials. To assess whether the peptides may form smaller membrane pores sufficient for the passage of ions, we tested their effects on the membrane potential using the fluorescence probe DiSC(3)5.[40] This dye accumulates in the cell membrane in a membrane potential-dependent manner and disassociates, when the membrane potential is dissipated. […] This effect can be clearly seen with polymyxin B (Figure 7b).
# The membrane potential of E. coli CCUG31246 and E. coli MC4100 carrying pABCON2-fhuA ΔC/Δ4L was measured by DiSC(3)5 microscopy according to ref. ([40]) with minor modifications. Cells were grown in 1:10 BHI containing 50 μg/mL bovine serum albumin to an OD600 of 0.3 prior to antibiotic treatment with the respective peptides for 10 and 60 min. Samples were stained with 0.5 μM DiSC(3)5 for 15 min (added 5 min before adding antibiotics for the 10 min time point and after 45 min of antibiotic treatment for the 60 min time point). Stained samples were spotted on 1.2% agarose, sealed with a gene frame, and imaged immediately. Microscopy was performed as described above, and fluorescence intensity was analyzed with the same parameters used for propidium iodide detection.
substance,measurement,setting,value
"polymyxin B [PolB, reference compound]",cells with unstained (reduced FM4-64 membrane stain) phenotype after 10 min,E. coli CCUG31246 [1],over 90%
same,propidium iodide uptake,E. coli CCUG31246 [2],near-instantaneous uptake of the dye throughout the bacterial population
same,E. coli MMC99 2 h,[3]; 2 h,<1.6 µg/mL
same,E. coli MMC99 6 h,[3]; 6 h,<1.6 µg/mL
same,E. coli MMC99 24 h,[3]; 24 h,<1.6 µg/mL
same,E. coli MIC,E. coli CCUG31246 [4],2.3 µg/mL
same,"membrane potential, DiSC(3)5 fluorescence, 10 min",E. coli CCUG31246 [5],clear and immediate reduction in the DiSC(3)5 fluorescence intensity
